Data taken from patent US10413575B2, “Pharmaceutical composition for preventing or treating inflammatory diseases, containing Lactococcus chungangensis as active ingredient” (CHUNG-ANG UNIVERSITY INDUSTRY-ACADEMIC COOPERATION …, priority 2015, dated 2019).

How the values were obtained:
[1] = tested on: DNCB-induced atopic BALB/c mice and NC/Nga mice; test: Histopathological test (H&E) of dorsal skin tissue and ears; type: in vivo; conditions: skin application, vs DNCB-induced atopic mice
Excerpt: Mice were divided into a total of five groups, a non-treatment (normal) group, a DNCB group, a Tacrolimus skin application group, a Lactococcus chungangensis skin application group, and a Lactococcus chungangensis oral administration group. Then, 0.1 g of hair removal cream was applied on the back and neck of BALB/c and NC/Nga mice, respectively, and hairs were removed using soft tissue paper to avoid wounds. After the mice were left for 5 days to heal minor wounds, 1% DNCB 200 (acetone:olive oil=3:1) was applied to the back and ears three times a week for two weeks to induce atopy. After atopy induction, Lactococcus chungangensis was applied to diseased parts at 10^9 cell/mouse twice a week for four weeks, while Lactococcus chungangensis was administered to oral cavity at 10^9 cell/mouse twice a week for four weeks. For efficacy comparison, Tacrolimus in use as an atopy medicine was used. Tacrolimus was applied to atopy diseased parts at 100 mg/kg twice a week for four weeks.
After the treatment of test materials, the dorsal skin tissue (1.5×1.5 cm) and ears of BALB/c mice and NC/Nga mice of the test and control groups were taken off, and fixed in 10% paraformaldehyde for 24 hours. The tissues were sufficiently hardened in paraffin, and sliced into five pieces to prepare slide glasses. […]

[2] = tested on: DNCB-induced atopic BALB/c mice; test: Visual evaluation of DNCB-induced atopic BALB/c mice; type: in vivo; parameters: key to dryness/scarring / edema / erosion/excoriation / erythema/hemorrhage: 0=absence; 1=mild; 2=moderate; 3=severe; key to Total severity score / Mean severity score: sum of 4 signs each 0=absence to 3=severe; conditions: skin application
Excerpt: (§1) Mice were divided into a total of five groups, a non-treatment (normal) group, a DNCB group, a Tacrolimus skin application group, a Lactococcus chungangensis skin application group, and a Lactococcus chungangensis oral administration group. Then, 0.1 g of hair removal cream was applied on the back and neck of BALB/c and NC/Nga mice, respectively, and hairs were removed using soft tissue paper to avoid wounds. After the mice were left for 5 days to heal minor wounds, 1% DNCB 200 (acetone:olive oil=3:1) was applied to the back and ears three times a week for two weeks to induce atopy. After atopy induction, Lactococcus chungangensis was applied to diseased parts at 10^9 cell/mouse twice a week for four weeks, while Lactococcus chungangensis was administered to oral cavity at 10^9 cell/mouse twice a week for four weeks. For efficacy comparison, Tacrolimus in use as an atopy medicine was used. Tacrolimus was applied to atopy diseased parts at 100 mg/kg twice a week for four weeks. Visual evaluation was conducted to determine a treatment effect in each of a Tacrolimus skin application group, a Lactococcus chungangensis skin application group, and a Lactococcus chungangensis oral administration group. Visual evaluation was conducted by evaluating the skin condition in four stages (0=absence, 1=mild, 2=moderate, 3=severe) according to the severity of erythema/hemorrhage, dryness/scarring, edema, and erosion/excoriation as evaluation indexes. A severity score of about 12 point or more was determined that the atopy symptoms reach the highest peak. The results are shown in Tables 1 to 5 for BALB/c mice, and Tables 6 to 10 for NC/Nga mice.

[3] = tested on: IL-4, IL-5, IL-12, IFN-γ, TNF-α, and TARC; test: Chemokine and cytokine protein levels in serum (ELISA); type: in vivo; conditions: BALB/c and NC/Nga, skin application, vs DNCB-induced atopy mice
Excerpt: Mice were divided into a total of five groups, a non-treatment (normal) group, a DNCB group, a Tacrolimus skin application group, a Lactococcus chungangensis skin application group, and a Lactococcus chungangensis oral administration group. Then, 0.1 g of hair removal cream was applied on the back and neck of BALB/c and NC/Nga mice, respectively, and hairs were removed using soft tissue paper to avoid wounds. After the mice were left for 5 days to heal minor wounds, 1% DNCB 200 (acetone:olive oil=3:1) was applied to the back and ears three times a week for two weeks to induce atopy. After atopy induction, Lactococcus chungangensis was applied to diseased parts at 10^9 cell/mouse twice a week for four weeks, while Lactococcus chungangensis was administered to oral cavity at 10^9 cell/mouse twice a week for four weeks. […] Tacrolimus was applied to atopy diseased parts at 100 mg/kg twice a week for four weeks.
In addition, the protein level changes of IL-4, IL-5, IL-12, IFN-γ, TNF-α, and TARC in the serum isolated from the blood taken from the heart of each of BALB/c mice and NC/Nga mice were measured using IL-4 Quantikine Immunoassay Kit, IL-5 Quantikine Immunoassay Kit, IL-12 Quantikine Immunoassay Kit, TNF-α Quantikine Immunoassay Kit, CCL17/TARC Quantikine Immunoassay Kit (R&D Systems, Minneapolis, Minn., USA), respectively, and the absorbance was determined at 450 nm by using a microplate reader.

IgE [4] = test: Immunoglobulin IgE measurement in serum (ELISA), NC/Nga mice; type: in vivo; conditions: skin application
Procedure: (§2) After the ending of the treatment with test materials, BALB/c and NC/Nga mice of the five groups were sacrificed, and blood was collected from the heart. Serum was isolated from the blood to measure IgE. […] Absorbance was measured at 450 nm using a microplate reader to determine IgE protein level.

[5] = tested on: DNCB-induced atopic NC/Nga mice; test: Visual evaluation of DNCB-induced atopic NC/Nga mice; type: in vivo; parameters: key to dryness/scarring / edema / erosion/excoriation / erythema/hemorrhage: 0=absence; 1=mild; 2=moderate; 3=severe; key to Total severity score / Mean severity score: sum of 4 signs each 0=absence to 3=severe; conditions: skin application
Excerpt: as §1

IgE [6] = test: Immunoglobulin IgE measurement in serum (ELISA), BALB/c mice; type: in vivo; conditions: skin application, compared with the DNCB-induced group
Procedure: as §2

[7] = tested on: IL-4, IL-5, IL-12, IFN-γ, TNF-α, and TARC; test: Chemokine and cytokine mRNA expression in skin tissues (reverse transcription PCR); type: in vivo, BALB/c mice and NC/Nga mice; conditions: skin application
Procedure: After the ending of the treatment of the BALB/c and NC/Nga mice with test materials, the BALB/c and NC/Nga mice of the DNCB-induced atopic control group, the Tacrolimus skin application group, the Lactococcus chungangensis skin application group, and the Lactococcus chungangensis oral administration group were sacrificed. The skin tissues were extracted, and Trizol was added thereto, and the skin tissues were homogenized using a homogenizer until dissolved, and RNA was extracted from the homogenized tissues. Specifically, Trizol was added to the skin tissues extracted from BALB/c mice and NC/Nga mice of each of the control and test groups, and chloroform (CHCl3) was added thereto and mixed. Then, the mixture was allowed to stand for 10 minutes and centrifuged. The centrifuged supernatant was recovered, mixed with the same amount of 2-propanol, allowed to stand for 10 minutes, centrifuged again, washed with 80% EtOH, and dried, to thereby obtain RNA. cDNA was obtained by reverse transcription PCR using AMV reverse transcriptase, dNTP (Promega, Madison, Wis.), EX Taq DNA polymerase (Takara Shuzou, Kyoto, Japan), and the obtained cDNA was used to investigate the mRNA expression levels of atopic-related chemokines and cytokines. Specifically, PCR was performed using the primer pairs described in Table 5 below for chemokines and cytokines IL-4, IL-5, IL-12, IFN-γ, TNF-α, and TARC and control GAPDH, respectively. The PCR was performed for 30 cycles of 1 minute at 94° C., 30 seconds at 95° C., 30 seconds at 55-65° C., and 3 minutes at 70° C.

In the case of `C=CC[C@@H]1/C=C(\C)C[C@H](C)C[C@H](OC)[C@H]2O[C@@](O)(C(=O)C(=O)N3CCCC[C@H]3C(=O)O[C@H](/C(C)=C/[C@@H]3CC[C@@H](O)[C@H](OC)C3)[C@H](C)[C@@H](O)CC1=O)[C@H](C)C[C@@H]2OC` [Tacrolimus], the “dead skin cell exfoliation, epidermal hypertrophy, and hyperkeratosis” value [1] is reported as “significantly reduced”, the “skin condition observed by the naked eye” value [2] is reported as “remarkably improved” and the Mean severity score ([2]; 1 Week) is reported as 5. The Total severity score ([2]; 1 Week, evaluation 1) was 4, the dryness/scarring ([2]; 1 Week, evaluation 1) was 1 and the edema ([2]; 1 Week, evaluation 1) was 0. For the same molecule, the erosion/excoriation ([2]; 1 Week, evaluation 1) was 1, the erythema/hemorrhage ([2]; 1 Week, evaluation 1) was 2 and the Total severity score ([2]; 1 Week, evaluation 2) was 6. It also gave a dryness/scarring ([2]; 1 Week, evaluation 2) of 1, an edema ([2]; 1 Week, evaluation 2) of 1 and an erosion/excoriation ([2]; 1 Week, evaluation 2) of 2. It also gave an erythema/hemorrhage ([2]; 1 Week, evaluation 2) of 2, a Mean severity score ([2]; 2 Weeks) of 8 and a Total severity score ([2]; 2 Weeks, evaluation 3) of 8. It also gave a dryness/scarring ([2]; 2 Weeks, evaluation 3) of 2, an edema ([2]; 2 Weeks, evaluation 3) of 2 and an erosion/excoriation ([2]; 2 Weeks, evaluation 3) of 2. For the same molecule, the erythema/hemorrhage ([2]; 2 Weeks, evaluation 3) was 2, the Total severity score ([2]; 2 Weeks, evaluation 4) was 8 and the dryness/scarring ([2]; 2 Weeks, evaluation 4) was 2. For the same molecule, the edema ([2]; 2 Weeks, evaluation 4) was 2, the erosion/excoriation ([2]; 2 Weeks, evaluation 4) was 2 and the erythema/hemorrhage ([2]; 2 Weeks, evaluation 4) was 2. The Mean severity score ([2]; 3 Weeks) was 10.5, the Total severity score ([2]; 3 Weeks, evaluation 5) was 11 and the dryness/scarring ([2]; 3 Weeks, evaluation 5) was 2. The edema ([2]; 3 Weeks, evaluation 5) was 3, the erosion/excoriation ([2]; 3 Weeks, evaluation 5) was 3 and the erythema/hemorrhage ([2]; 3 Weeks, evaluation 5) was 3. The Total severity score ([2]; 3 Weeks, evaluation 6) was 10, the dryness/scarring ([2]; 3 Weeks, evaluation 6) was 2 and the edema ([2]; 3 Weeks, evaluation 6) was 2. It also gave an erosion/excoriation ([2]; 3 Weeks, evaluation 6) of 3, an erythema/hemorrhage ([2]; 3 Weeks, evaluation 6) of 3 and a Mean severity score ([2]; 4 Weeks) of 9.5. For the same molecule, the Total severity score ([2]; 4 Weeks, evaluation 7) was 10, the dryness/scarring ([2]; 4 Weeks, evaluation 7) was 3 and the edema ([2]; 4 Weeks, evaluation 7) was 2. For the same molecule, the erosion/excoriation ([2]; 4 Weeks, evaluation 7) was 3, the erythema/hemorrhage ([2]; 4 Weeks, evaluation 7) was 3 and the Total severity score ([2]; 4 Weeks, evaluation 8) was 9. For the same molecule, the dryness/scarring ([2]; 4 Weeks, evaluation 8) was 1, the edema ([2]; 4 Weeks, evaluation 8) was 2 and the erosion/excoriation ([2]; 4 Weeks, evaluation 8) was 3. The erythema/hemorrhage ([2]; 4 Weeks, evaluation 8) was 3, the Mean severity score ([2]; 5 Weeks) was 6 and the Total severity score ([2]; 5 Weeks, evaluation 9) was 7. It also gave a dryness/scarring ([2]; 5 Weeks, evaluation 9) of 2, an edema ([2]; 5 Weeks, evaluation 9) of 2 and an erosion/excoriation ([2]; 5 Weeks, evaluation 9) of 1. It also gave an erythema/hemorrhage ([2]; 5 Weeks, evaluation 9) of 2, a Total severity score ([2]; 5 Weeks, evaluation 10) of 5 and a dryness/scarring ([2]; 5 Weeks, evaluation 10) of 2. It also gave an edema ([2]; 5 Weeks, evaluation 10) of 1, an erosion/excoriation ([2]; 5 Weeks, evaluation 10) of 1 and an erythema/hemorrhage ([2]; 5 Weeks, evaluation 10) of 1. For the same molecule, the Mean severity score ([2]; 6 Weeks) was 2.5, the Total severity score ([2]; 6 Weeks, evaluation 11) was 4 and the dryness/scarring ([2]; 6 Weeks, evaluation 11) was 1. For the same molecule, the edema ([2]; 6 Weeks, evaluation 11) was 1, the erosion/excoriation ([2]; 6 Weeks, evaluation 11) was 1 and the erythema/hemorrhage ([2]; 6 Weeks, evaluation 11) was 1. It also gave a Total severity score ([2]; 6 Weeks, evaluation 12) of 1, a dryness/scarring ([2]; 6 Weeks, evaluation 12) of 1 and an edema ([2]; 6 Weeks, evaluation 12) of 0. The erosion/excoriation ([2]; 6 Weeks, evaluation 12) was 0, the erythema/hemorrhage ([2]; 6 Weeks, evaluation 12) was 0 and the “protein level of IFN-γ” value [3] was “significantly reduced”. The “protein level of IL-4” value [3] was “significantly reduced”, the “protein level of IL-5” value [3] was “significantly reduced” and the “protein level of IL-12” value [3] was “significantly reduced”. The “protein level of TARC” value [3] was “significantly reduced”, the “protein level of TNF-α” value [3] was “significantly reduced” and the “inhibition of IgE production” value (IgE [4]) was 62%. The Mean severity score ([5]; 1 Week) was 5.5, the Total severity score ([5]; 1 Week, evaluation 1) was 5 and the dryness/scarring ([5]; 1 Week, evaluation 1) was 2. The edema ([5]; 1 Week, evaluation 1) was 1, the erosion/excoriation ([5]; 1 Week, evaluation 1) was 1 and the erythema/hemorrhage ([5]; 1 Week, evaluation 1) was 1. The Total severity score ([5]; 1 Week, evaluation 2) was 6, the dryness/scarring ([5]; 1 Week, evaluation 2) was 2 and the edema ([5]; 1 Week, evaluation 2) was 1. The erosion/excoriation ([5]; 1 Week, evaluation 2) was 2, the erythema/hemorrhage ([5]; 1 Week, evaluation 2) was 1 and the Mean severity score ([5]; 2 Weeks) was 10.5. For the same molecule, the Total severity score ([5]; 2 Weeks, evaluation 3) was 11, the dryness/scarring ([5]; 2 Weeks, evaluation 3) was 3 and the edema ([5]; 2 Weeks, evaluation 3) was 3. It also gave an erosion/excoriation ([5]; 2 Weeks, evaluation 3) of 2, an erythema/hemorrhage ([5]; 2 Weeks, evaluation 3) of 3 and a Total severity score ([5]; 2 Weeks, evaluation 4) of 10. The dryness/scarring ([5]; 2 Weeks, evaluation 4) was 3, the edema ([5]; 2 Weeks, evaluation 4) was 2 and the erosion/excoriation ([5]; 2 Weeks, evaluation 4) was 2. It also gave an erythema/hemorrhage ([5]; 2 Weeks, evaluation 4) of 3, a Mean severity score ([5]; 3 Weeks) of 11.5 and a Total severity score ([5]; 3 Weeks, evaluation 5) of 12. The dryness/scarring ([5]; 3 Weeks, evaluation 5) was 3, the edema ([5]; 3 Weeks, evaluation 5) was 3 and the erosion/excoriation ([5]; 3 Weeks, evaluation 5) was 3. The erythema/hemorrhage ([5]; 3 Weeks, evaluation 5) was 3, the Total severity score ([5]; 3 Weeks, evaluation 6) was 11 and the dryness/scarring ([5]; 3 Weeks, evaluation 6) was 3. For the same molecule, the edema ([5]; 3 Weeks, evaluation 6) was 2, the erosion/excoriation ([5]; 3 Weeks, evaluation 6) was 3 and the erythema/hemorrhage ([5]; 3 Weeks, evaluation 6) was 3. It also gave a Mean severity score ([5]; 4 Weeks) of 11.5, a Total severity score ([5]; 4 Weeks, evaluation 7) of 12 and a dryness/scarring ([5]; 4 Weeks, evaluation 7) of 3. It also gave an edema ([5]; 4 Weeks, evaluation 7) of 3, an erosion/excoriation ([5]; 4 Weeks, evaluation 7) of 3 and an erythema/hemorrhage ([5]; 4 Weeks, evaluation 7) of 3. It also gave a Total severity score ([5]; 4 Weeks, evaluation 8) of 11, a dryness/scarring ([5]; 4 Weeks, evaluation 8) of 3 and an edema ([5]; 4 Weeks, evaluation 8) of 3. It also gave an erosion/excoriation ([5]; 4 Weeks, evaluation 8) of 2, an erythema/hemorrhage ([5]; 4 Weeks, evaluation 8) of 3 and a Mean severity score ([5]; 5 Weeks) of 11. It also gave a Total severity score ([5]; 5 Weeks, evaluation 9) of 11, a dryness/scarring ([5]; 5 Weeks, evaluation 9) of 3 and an edema ([5]; 5 Weeks, evaluation 9) of 2. The erosion/excoriation ([5]; 5 Weeks, evaluation 9) was 3, the erythema/hemorrhage ([5]; 5 Weeks, evaluation 9) was 3 and the Total severity score ([5]; 5 Weeks, evaluation 10) was 11. For the same molecule, the dryness/scarring ([5]; 5 Weeks, evaluation 10) was 3, the edema ([5]; 5 Weeks, evaluation 10) was 3 and the erosion/excoriation ([5]; 5 Weeks, evaluation 10) was 2. The erythema/hemorrhage ([5]; 5 Weeks, evaluation 10) was 3, the Mean severity score ([5]; 6 Weeks) was 9 and the Total severity score ([5]; 6 Weeks, evaluation 11) was 10. It also gave a dryness/scarring ([5]; 6 Weeks, evaluation 11) of 3, an edema ([5]; 6 Weeks, evaluation 11) of 2 and an erosion/excoriation ([5]; 6 Weeks, evaluation 11) of 2. For the same molecule, the erythema/hemorrhage ([5]; 6 Weeks, evaluation 11) was 3, the Total severity score ([5]; 6 Weeks, evaluation 12) was 8 and the dryness/scarring ([5]; 6 Weeks, evaluation 12) was 2. The edema ([5]; 6 Weeks, evaluation 12) was 2, the erosion/excoriation ([5]; 6 Weeks, evaluation 12) was 2 and the erythema/hemorrhage ([5]; 6 Weeks, evaluation 12) was 2. For the same molecule, the “inhibition of IgE production” value (IgE [6]) was 48%, the “mRNA expression level of IFN-γ” value [7] was “reduced” and the “mRNA expression level of IL-4” value [7] was “reduced”. For the same molecule, the “mRNA expression level of IL-5” value [7] was “reduced”, the “mRNA expression level of IL-12” value [7] was “reduced” and the “mRNA expression level of TARC” value [7] was “reduced”. The “mRNA expression level of TNF-α” value [7] was “reduced”.
